# Laboratory results: the kinase profiling compilation of Christmann-Franck et al. (2016)
# Key:
# Test in all cases: radiometric filter-binding kinase assay
# [1] = system: AKT1 (human), P31749 [S473D]
# AURKA (human) = AURKA (human) (UniProt O14965)
# BRSK1 (human) = BRSK1 (human) (UniProt Q8TDC3)
# DYRK2 (human) = DYRK2 (human) (UniProt Q92630)
# EEF2K (human) = EEF2K (human) (UniProt O00418)
# EPHA2 (human) = EPHA2 (human) (UniProt P29317)
# EPHB3 (human) = EPHB3 (human) (UniProt P54753)
# ERBB4 (human) = ERBB4 (human) (UniProt Q15303)
# GSK3B (human) = GSK3B (human) (UniProt P49841)
# HIPK3 (human) = HIPK3 (human) (UniProt Q9H422)
# INSR (human) = INSR (human) (UniProt P06213)
# IRAK4 (human) = IRAK4 (human) (UniProt Q9NWZ3)
# MAP3K1 (human) = MAP3K1 (human) (UniProt Q13233)
# MAP3K11 (human) = MAP3K11 (human) (UniProt Q16584)
# MAP3K7 TAB1 (human) = MAP3K7 TAB1 (human) (UniProt Q15750+O43318)
# MAP3K9 (human) = MAP3K9 (human) (UniProt P80192)
# MAPK12 (human) = MAPK12 (human) (UniProt P53778)
# MAPK9 (human) = MAPK9 (human) (UniProt P45984)
# MAPKAPK2 (human) = MAPKAPK2 (human) (UniProt P49137)
# MARK1 (human) = MARK1 (human) (UniProt Q9P0L2)
# MARK2 (human) = MARK2 (human) (UniProt Q7KZI7)
# MARK4 (human) = MARK4 (human) (UniProt Q96L34)
# MELK (human) = MELK (human) (UniProt Q14680)
# MST4 (human) = MST4 (human) (UniProt Q9P289)
# NTRK1 (human) = NTRK1 (human) (UniProt P04629)
# NUAK1 (human) = NUAK1 (human) (UniProt O60285)
# PAK4 (human) = PAK4 (human) (UniProt O96013)
# PAK6 (human) = PAK6 (human) (UniProt Q9NQU5)
# PIM1 (human) = PIM1 (human) (UniProt P11309)
# PKN2 (human) = PKN2 (human) (UniProt Q16513)
# PRKCA (human) = PRKCA (human) (UniProt P17252)
# PRKCZ (human) = PRKCZ (human) (UniProt Q05513)
# [2] = biological target: STK11 CAB39 STRADA (human) (UniProt Q9Y376+Q7RTN6+Q15831)
# Sequence of MAP3K7 TAB1 (human) (O43318 whole entry, looked up): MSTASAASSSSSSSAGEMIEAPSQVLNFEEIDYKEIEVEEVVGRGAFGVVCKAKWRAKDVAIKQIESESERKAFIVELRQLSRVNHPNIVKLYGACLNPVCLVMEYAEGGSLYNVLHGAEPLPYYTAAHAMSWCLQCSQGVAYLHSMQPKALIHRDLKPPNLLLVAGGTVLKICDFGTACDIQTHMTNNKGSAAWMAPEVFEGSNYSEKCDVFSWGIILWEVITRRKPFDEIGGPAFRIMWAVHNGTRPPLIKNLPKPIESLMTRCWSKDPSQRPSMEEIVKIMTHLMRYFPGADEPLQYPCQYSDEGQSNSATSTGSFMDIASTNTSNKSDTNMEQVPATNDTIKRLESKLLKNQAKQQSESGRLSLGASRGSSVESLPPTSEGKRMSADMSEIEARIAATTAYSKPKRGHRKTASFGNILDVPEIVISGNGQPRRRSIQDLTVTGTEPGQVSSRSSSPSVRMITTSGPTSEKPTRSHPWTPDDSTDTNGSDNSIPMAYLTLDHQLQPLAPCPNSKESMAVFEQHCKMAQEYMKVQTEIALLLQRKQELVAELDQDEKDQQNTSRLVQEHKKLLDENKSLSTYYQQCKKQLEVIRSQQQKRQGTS
# Sequence of MAP3K7 TAB1 (human) (Q15750 whole entry, looked up): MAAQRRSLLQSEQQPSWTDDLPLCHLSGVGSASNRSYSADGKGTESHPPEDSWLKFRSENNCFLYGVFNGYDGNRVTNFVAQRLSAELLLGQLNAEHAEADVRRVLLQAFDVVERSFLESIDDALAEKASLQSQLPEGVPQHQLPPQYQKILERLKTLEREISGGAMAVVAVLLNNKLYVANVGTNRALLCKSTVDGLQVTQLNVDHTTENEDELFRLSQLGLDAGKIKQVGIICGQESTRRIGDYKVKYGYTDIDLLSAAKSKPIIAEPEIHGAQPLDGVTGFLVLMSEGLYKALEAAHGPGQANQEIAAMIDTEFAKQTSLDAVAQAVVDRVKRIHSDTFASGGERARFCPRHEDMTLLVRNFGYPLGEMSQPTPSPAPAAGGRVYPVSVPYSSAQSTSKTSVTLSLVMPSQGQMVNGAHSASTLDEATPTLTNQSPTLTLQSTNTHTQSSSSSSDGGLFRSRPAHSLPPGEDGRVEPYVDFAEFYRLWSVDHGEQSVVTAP
# Sequence of DYRK2 (human) (Q92630 whole entry, looked up): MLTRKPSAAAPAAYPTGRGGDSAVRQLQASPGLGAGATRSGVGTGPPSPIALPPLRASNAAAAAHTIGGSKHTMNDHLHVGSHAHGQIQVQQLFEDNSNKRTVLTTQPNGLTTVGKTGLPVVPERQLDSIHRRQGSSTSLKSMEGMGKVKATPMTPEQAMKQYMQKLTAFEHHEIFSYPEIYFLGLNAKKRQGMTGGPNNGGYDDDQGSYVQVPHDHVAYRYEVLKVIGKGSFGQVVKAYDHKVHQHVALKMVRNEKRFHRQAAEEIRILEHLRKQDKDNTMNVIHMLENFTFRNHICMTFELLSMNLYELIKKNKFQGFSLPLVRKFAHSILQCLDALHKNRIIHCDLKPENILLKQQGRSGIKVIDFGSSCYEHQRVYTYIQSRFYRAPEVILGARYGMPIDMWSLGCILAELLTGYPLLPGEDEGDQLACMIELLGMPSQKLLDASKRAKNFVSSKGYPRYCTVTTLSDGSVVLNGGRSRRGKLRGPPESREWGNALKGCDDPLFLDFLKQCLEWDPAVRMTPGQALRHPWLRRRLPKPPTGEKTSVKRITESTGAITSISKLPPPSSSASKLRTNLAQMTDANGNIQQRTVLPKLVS
# Sequence of MAP3K9 (human) (P80192 whole entry, looked up): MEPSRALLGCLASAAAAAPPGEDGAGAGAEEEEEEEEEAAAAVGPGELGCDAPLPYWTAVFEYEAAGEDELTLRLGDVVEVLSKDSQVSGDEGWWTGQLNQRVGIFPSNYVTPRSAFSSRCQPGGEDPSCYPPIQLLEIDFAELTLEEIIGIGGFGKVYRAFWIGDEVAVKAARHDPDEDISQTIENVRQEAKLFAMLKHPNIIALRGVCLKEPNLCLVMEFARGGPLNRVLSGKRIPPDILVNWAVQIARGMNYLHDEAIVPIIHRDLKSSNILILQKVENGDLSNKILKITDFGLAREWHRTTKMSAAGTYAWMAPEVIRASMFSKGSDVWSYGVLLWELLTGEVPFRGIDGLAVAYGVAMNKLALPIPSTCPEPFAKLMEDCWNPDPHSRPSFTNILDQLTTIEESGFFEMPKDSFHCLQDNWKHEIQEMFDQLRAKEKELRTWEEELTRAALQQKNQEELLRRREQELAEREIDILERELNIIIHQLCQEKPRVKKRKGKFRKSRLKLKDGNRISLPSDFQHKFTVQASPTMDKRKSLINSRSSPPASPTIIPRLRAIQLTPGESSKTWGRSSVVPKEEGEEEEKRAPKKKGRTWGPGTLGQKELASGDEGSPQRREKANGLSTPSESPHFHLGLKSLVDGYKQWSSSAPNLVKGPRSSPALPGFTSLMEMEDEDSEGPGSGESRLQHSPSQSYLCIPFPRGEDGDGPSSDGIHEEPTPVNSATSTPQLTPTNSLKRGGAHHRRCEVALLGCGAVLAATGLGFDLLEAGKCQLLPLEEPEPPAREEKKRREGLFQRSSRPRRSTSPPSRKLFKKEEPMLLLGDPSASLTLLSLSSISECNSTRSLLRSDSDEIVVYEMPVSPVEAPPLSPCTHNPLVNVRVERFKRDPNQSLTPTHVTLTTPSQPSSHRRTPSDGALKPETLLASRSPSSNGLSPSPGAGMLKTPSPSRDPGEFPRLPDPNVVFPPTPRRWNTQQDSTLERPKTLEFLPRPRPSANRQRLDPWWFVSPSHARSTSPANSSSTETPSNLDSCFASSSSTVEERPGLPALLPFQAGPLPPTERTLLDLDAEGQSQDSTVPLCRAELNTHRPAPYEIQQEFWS
# Sequence of MST4 (human) (Q9P289 whole entry, looked up): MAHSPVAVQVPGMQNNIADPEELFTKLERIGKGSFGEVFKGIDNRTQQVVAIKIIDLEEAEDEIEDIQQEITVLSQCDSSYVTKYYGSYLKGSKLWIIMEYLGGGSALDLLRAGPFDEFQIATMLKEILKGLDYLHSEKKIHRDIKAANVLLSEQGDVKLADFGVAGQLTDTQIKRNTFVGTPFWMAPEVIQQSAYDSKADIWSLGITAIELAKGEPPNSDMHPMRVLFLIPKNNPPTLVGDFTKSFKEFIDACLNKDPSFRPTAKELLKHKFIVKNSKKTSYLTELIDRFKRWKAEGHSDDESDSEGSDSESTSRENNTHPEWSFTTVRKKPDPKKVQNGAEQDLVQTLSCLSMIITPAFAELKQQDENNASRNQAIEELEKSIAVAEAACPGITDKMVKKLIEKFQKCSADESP
# Sequence of PRKCZ (human) (Q05513 whole entry, looked up): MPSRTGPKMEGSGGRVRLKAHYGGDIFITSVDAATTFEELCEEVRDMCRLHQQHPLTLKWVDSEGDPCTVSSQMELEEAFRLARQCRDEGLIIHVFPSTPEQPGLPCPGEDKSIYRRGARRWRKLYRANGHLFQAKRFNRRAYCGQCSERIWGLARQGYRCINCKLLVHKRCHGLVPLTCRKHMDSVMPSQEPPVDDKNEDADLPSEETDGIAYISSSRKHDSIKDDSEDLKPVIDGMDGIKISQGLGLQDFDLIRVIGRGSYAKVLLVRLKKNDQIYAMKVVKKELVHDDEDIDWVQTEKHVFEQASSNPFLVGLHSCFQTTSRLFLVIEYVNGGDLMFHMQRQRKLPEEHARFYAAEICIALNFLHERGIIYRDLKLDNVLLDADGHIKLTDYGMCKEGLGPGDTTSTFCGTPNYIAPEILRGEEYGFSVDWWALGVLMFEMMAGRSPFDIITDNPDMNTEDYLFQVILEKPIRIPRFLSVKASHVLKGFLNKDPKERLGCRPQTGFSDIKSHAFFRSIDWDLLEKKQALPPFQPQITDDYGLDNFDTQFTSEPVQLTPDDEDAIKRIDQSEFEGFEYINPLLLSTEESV
# Sequence of AKT1 (human), P31749 [S473D] (P31749 whole entry S473D, looked up): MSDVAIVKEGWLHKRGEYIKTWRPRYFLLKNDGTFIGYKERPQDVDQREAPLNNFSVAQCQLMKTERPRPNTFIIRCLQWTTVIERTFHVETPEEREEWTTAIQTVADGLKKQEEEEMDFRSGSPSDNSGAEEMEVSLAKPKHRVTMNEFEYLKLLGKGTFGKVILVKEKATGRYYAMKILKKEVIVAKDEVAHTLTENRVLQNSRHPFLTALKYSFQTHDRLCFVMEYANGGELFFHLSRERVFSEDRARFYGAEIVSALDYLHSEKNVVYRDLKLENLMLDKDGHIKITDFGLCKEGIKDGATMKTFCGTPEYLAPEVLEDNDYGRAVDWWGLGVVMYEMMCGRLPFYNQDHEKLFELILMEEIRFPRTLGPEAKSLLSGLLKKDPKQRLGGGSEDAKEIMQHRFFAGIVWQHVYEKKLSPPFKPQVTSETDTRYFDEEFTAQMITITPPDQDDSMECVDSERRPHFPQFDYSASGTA
smiles,measurement,setting,value
NC(=O)c1cc2c(-c3cccc(-c4ccccc4)c3)cnc(N)c2s1,residual activity,[1]; compound 0.1 µM,105%
same,residual activity,[1]; compound 1.0 µM,104%
same,residual activity,[1]; compound 10.0 µM,108%
same,residual activity,AURKA (human); compound 0.1 µM,95%
same,residual activity,AURKA (human); compound 1.0 µM,99%
same,residual activity,AURKA (human); compound 10.0 µM,89%
same,residual activity,BRSK1 (human); compound 0.1 µM,102%
same,residual activity,BRSK1 (human); compound 1.0 µM,81%
same,residual activity,BRSK1 (human); compound 10.0 µM,89%
same,residual activity,DYRK2 (human); compound 0.1 µM,101%
same,residual activity,DYRK2 (human); compound 1.0 µM,77%
same,residual activity,DYRK2 (human); compound 10.0 µM,88%
same,residual activity,EEF2K (human); compound 0.1 µM,124%
same,residual activity,EEF2K (human); compound 1.0 µM,114%
same,residual activity,EEF2K (human); compound 10.0 µM,117%
same,residual activity,EPHA2 (human); compound 0.1 µM,87%
same,residual activity,EPHA2 (human); compound 1.0 µM,78%
same,residual activity,EPHA2 (human); compound 10.0 µM,86%
same,residual activity,EPHB3 (human); compound 0.1 µM,128%
same,residual activity,EPHB3 (human); compound 1.0 µM,113%
same,residual activity,EPHB3 (human); compound 10.0 µM,92%
same,residual activity,ERBB4 (human); compound 1.0 µM,40%
same,residual activity,ERBB4 (human); compound 10.0 µM,17%
same,residual activity,GSK3B (human); compound 0.1 µM,68%
same,residual activity,GSK3B (human); compound 1.0 µM,16%
same,residual activity,GSK3B (human); compound 10.0 µM,4%
same,residual activity,HIPK3 (human); compound 0.1 µM,76%
same,residual activity,HIPK3 (human); compound 1.0 µM,52%
same,residual activity,HIPK3 (human); compound 10.0 µM,19%
same,residual activity,INSR (human); compound 0.1 µM,103%
same,residual activity,INSR (human); compound 1.0 µM,81%
same,residual activity,INSR (human); compound 10.0 µM,18%
same,residual activity,IRAK4 (human); compound 0.1 µM,127%
same,residual activity,IRAK4 (human); compound 1.0 µM,92%
same,residual activity,IRAK4 (human); compound 10.0 µM,44%
same,residual activity,MAP3K1 (human); compound 0.1 µM,108%
same,residual activity,MAP3K1 (human); compound 1.0 µM,73%
same,residual activity,MAP3K1 (human); compound 10.0 µM,30%
same,residual activity,MAP3K11 (human); compound 0.1 µM,74%
same,residual activity,MAP3K11 (human); compound 1.0 µM,19%
same,residual activity,MAP3K11 (human); compound 10.0 µM,4%
same,residual activity,MAP3K7 TAB1 (human); compound 1.0 µM,8%
same,residual activity,MAP3K7 TAB1 (human); compound 10.0 µM,2%
same,residual activity,MAP3K9 (human); compound 0.1 µM,54%
same,residual activity,MAP3K9 (human); compound 1.0 µM,18%
same,residual activity,MAP3K9 (human); compound 10.0 µM,6%
same,residual activity,MAPK12 (human); compound 0.1 µM,93%
same,residual activity,MAPK12 (human); compound 1.0 µM,76%
same,residual activity,MAPK12 (human); compound 10.0 µM,38%
same,residual activity,MAPK9 (human); compound 0.1 µM,107%
same,residual activity,MAPK9 (human); compound 1.0 µM,82%
same,residual activity,MAPK9 (human); compound 10.0 µM,33%
same,residual activity,MAPKAPK2 (human); compound 0.1 µM,102%
same,residual activity,MAPKAPK2 (human); compound 1.0 µM,101%
same,residual activity,MAPKAPK2 (human); compound 10.0 µM,94%
same,residual activity,MARK1 (human); compound 0.1 µM,78%
same,residual activity,MARK1 (human); compound 1.0 µM,66%
same,residual activity,MARK1 (human); compound 10.0 µM,37%
same,residual activity,MARK2 (human); compound 0.1 µM,103%
same,residual activity,MARK2 (human); compound 1.0 µM,65%
same,residual activity,MARK2 (human); compound 10.0 µM,28%
same,residual activity,MARK4 (human); compound 0.1 µM,88%
same,residual activity,MARK4 (human); compound 1.0 µM,82%
same,residual activity,MARK4 (human); compound 10.0 µM,46%
same,residual activity,MELK (human); compound 0.1 µM,99%
same,residual activity,MELK (human); compound 1.0 µM,57%
same,residual activity,MELK (human); compound 10.0 µM,15%
same,residual activity,MST4 (human); compound 0.1 µM,102%
same,residual activity,MST4 (human); compound 1.0 µM,75%
same,residual activity,MST4 (human); compound 10.0 µM,35%
same,residual activity,NTRK1 (human); compound 0.1 µM,92%
same,residual activity,NTRK1 (human); compound 1.0 µM,73%
same,residual activity,NTRK1 (human); compound 10.0 µM,28%
same,residual activity,NUAK1 (human); compound 0.1 µM,81%
same,residual activity,NUAK1 (human); compound 1.0 µM,24%
same,residual activity,NUAK1 (human); compound 10.0 µM,6%
same,residual activity,PAK4 (human); compound 0.1 µM,65%
same,residual activity,PAK4 (human); compound 1.0 µM,18%
same,residual activity,PAK4 (human); compound 10.0 µM,7%
same,residual activity,PAK6 (human); compound 0.1 µM,85%
same,residual activity,PAK6 (human); compound 1.0 µM,70%
same,residual activity,PAK6 (human); compound 10.0 µM,31%
same,residual activity,PIM1 (human); compound 0.1 µM,112%
same,residual activity,PIM1 (human); compound 1.0 µM,89%
same,residual activity,PIM1 (human); compound 10.0 µM,41%
same,residual activity,PKN2 (human); compound 0.1 µM,100%
same,residual activity,PKN2 (human); compound 1.0 µM,76%
same,residual activity,PKN2 (human); compound 10.0 µM,29%
same,residual activity,PRKCA (human); compound 0.1 µM,94%
same,residual activity,PRKCA (human); compound 1.0 µM,64%
same,residual activity,PRKCA (human); compound 10.0 µM,18%
same,residual activity,PRKCZ (human); compound 0.1 µM,108%
same,residual activity,PRKCZ (human); compound 1.0 µM,93%
same,residual activity,PRKCZ (human); compound 10.0 µM,82%
same,residual activity,[2]; compound 0.1 µM,105%
same,residual activity,[2]; compound 1.0 µM,57%
same,residual activity,[2]; compound 10.0 µM,23%
